# Target: T1, angiotensin II receptor (rabbit aortic rings) (Oryctolagus cuniculus, UniProt P34976)
# T1 construct: The thoracic aorta was removed, cleaned of adherent fat and connective tissue and then cut into 3-mm ring segments; from tissue; host or cells: rabbit thoracic aorta rings, endothelium removed
# T1 sequence (P34976 1-359): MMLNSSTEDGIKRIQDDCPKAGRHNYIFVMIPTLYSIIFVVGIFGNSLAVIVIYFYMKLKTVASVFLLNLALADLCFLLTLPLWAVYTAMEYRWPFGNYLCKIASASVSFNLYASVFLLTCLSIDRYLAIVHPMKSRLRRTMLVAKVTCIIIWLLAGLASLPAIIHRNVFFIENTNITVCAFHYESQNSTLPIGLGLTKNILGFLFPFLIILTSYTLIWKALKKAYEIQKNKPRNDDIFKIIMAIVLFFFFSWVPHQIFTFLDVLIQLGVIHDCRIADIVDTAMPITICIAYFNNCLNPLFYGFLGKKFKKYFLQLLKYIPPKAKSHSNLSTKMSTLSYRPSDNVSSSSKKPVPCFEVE
# Test: Assay B: In vitro Vascular Smooth Muscle Response for AII (rabbit aortic rings, pA2)
# Assay type: cell-based
# Design: key to Assay B pA2 (NC = Non-Competitive antagonist): NC=Non-Competitive antagonist
# Conditions: not given
# Experimental: Assay B: In vitro Vascular Smooth Muscle-response for AII
# The compounds of the invention were tested for antagonist activity in rabbit aortic rings. Male New Zealand white rabbits (2-2.5 kg) were sacrificed using an overdose of pentobarbital and exsanguinated via the carotid arteries. The thoracic aorta was removed, cleaned of adherent fat and connective tissue and then cut into 3-mm ring segments. The endothelium was removed from the rings by gently sliding a rolled-up piece of filter paper into the vessel lumen. The rings were then mounted in a water-jacketed tissue bath, maintained at 37° C., between moveable and fixed ends of a stainless steel wire with the moveable end attached to an FT03 Grass transducer coupled to a Model 7D Grass Polygraph for recording isometric force responses. […] The preparations were equilibrated for one hour before approximately one gram of passive tension was placed on the rings. Angiotensin II concentration-response curves were then recorded (3×10^−10 to 1×10^−5 M). Each concentration of AII was allowed to elicit its maximal contraction, and then AII was washed out repeatedly for 30 minutes before rechallenging with a higher concentration of AII. Aorta rings were exposed to the test antagonist at 10^−5 M for 5 minutes before challenging with AII. Adjacent segments of the same aorta ring were used for all concentration-response curves in the presence or absence of the test antagonist. The effectiveness of the test compound was expressed in terms of pA2 values and were calculated according to H. O. Schild [Br. J. Pharmacol. Chemother., 2, 189-206 (1947)]. The pA2 value is […] which increases the EC50 value for AII by a factor of two. Each test antagonist was evaluated in aorta rings from two rabbits.
# 2Assay B: In vitro Vascular Smooth Muscle Response
row,Assay B pA2 (NC = Non-Competitive antagonist),Structure (SMILES)
1,NC,CCCCc1cn([C@H]2[C@H](C)CCC[C@@H]2C)c(=O)n1Cc1ccc(-c2ccccc2-c2nnn[nH]2)nc1 [Compound 236]
2,NC,CCCCc1cn(-c2ccccc2CC)c(=O)n1Cc1ccc(-c2ccccc2-c2nnn[nH]2)cc1 [Compound 271]
3,NC,CCCCc1cn(-c2ccccc2C(C)C)c(=O)n1Cc1ccc(-c2ccccc2-c2nnn[nH]2)cc1 [Compound 272]

# Same assay, conditions: two determinations given as a/b
row,Kb,Structure (SMILES)
1,955 nM,CCCCc1ncn(Cc2ccc(-c3ccccc3-c3nnn[nH]3)cc2)n1 [Compound 54]
2,1000 nM,CCCCc1nc(CCCC2CCCCC2)n(Cc2ccc(-c3ccccc3-c3nnn[nH]3)cc2)n1 [Compound 57]
3,1700 nM,CCCCc1nc(C)n(Cc2ccc(-c3ccccc3C(=O)O)cc2)n1 [Compound 77]
4,100 nM,CCCCc1nn(CCCC)c(=O)n1Cc1ccc(-c2ccccc2C(=O)O)cc1 [Compound 78]
5,7.94 nM,CCCCc1nn(CC(=O)C23CC4CC(CC(C4)C2)C3)c(=O)n1Cc1ccc(-c2ccccc2-c2nn[nH]n2)cc1 [Compound 80]
6,10 nM,CCCCc1nn(CCCc2ccccc2)c(=O)n1Cc1ccc(-c2ccccc2-c2nn[nH]n2)cc1 [Compound 81]
7,5.01 nM,CCCCc1nn(CC(O)c2ccccc2)c(=O)n1Cc1ccc(-c2ccccc2-c2nn[nH]n2)cc1 (stereo not shown) [Compound 83]
8,79.4 nM,CCCCc1nn(CC(=O)OC(C)(C)C)c(=O)n1Cc1ccc(-c2ccccc2-c2nn[nH]n2)cc1 [Compound 84]
9,1.26 nM,CCCCCCn1nc(CCCC)n(Cc2ccc(-c3ccccc3-c3nn[nH]n3)cc2)c1=O [Compound 85]
10,15.8 nM,CCCCc1nn(CC(=O)OCC)c(=O)n1Cc1ccc(-c2ccccc2-c2nn[nH]n2)cc1 [Compound 86]
11,15.8 nM,CCCCc1nn(CC(=O)O)c(=O)n1Cc1ccc(-c2ccccc2-c2nn[nH]n2)cc1 [Compound 87]
12,12.6 nM,CCCCc1nn(CCC2CCCCC2)c(=O)n1Cc1ccc(-c2ccccc2-c2nn[nH]n2)cc1 [Compound 89]
13,1 nM,CCCCCn1nc(CCCC)n(Cc2ccc(-c3ccccc3-c3nn[nH]n3)cc2)c1=O [Compound 90]
14,2.51 nM,CCCCc1nn(CC(OCC(=O)O)c2ccccc2)c(=O)n1Cc1ccc(-c2ccccc2-c2nn[nH]n2)cc1 (stereo not shown) [Compound 91]
15,12.6 nM,CCCCc1nn(CCC(C)CC(C)(C)C)c(=O)n1Cc1ccc(-c2ccccc2-c2nn[nH]n2)cc1 (stereo not shown) [Compound 92]
16,6.31 nM,CCCCc1nn(C(=O)CCC)c(=O)n1Cc1ccc(-c2ccccc2-c2nn[nH]n2)cc1 [Compound 95]
17,10 nM,CCCCc1nn(CC(=O)c2cc(OC)ccc2OC)c(=O)n1Cc1ccc(-c2ccccc2-c2nn[nH]n2)cc1 [Compound 96]
18,20 nM,CCCCc1nn(CC(OCc2ccccc2)c2ccccc2)c(=O)n1Cc1ccc(-c2ccccc2-c2nn[nH]n2)cc1 (stereo not shown) [Compound 97]
19,7.94 nM,CCCCc1nn(CC(O)c2cc(OC)ccc2OC)c(=O)n1Cc1ccc(-c2ccccc2-c2nn[nH]n2)cc1 (stereo not shown) [Compound 98]
20,316 nM,CCCCc1nn(Cc2ccc3ccccc3c2)c(=O)n1Cc1ccc(-c2ccccc2-c2nn[nH]n2)cc1 [Compound 99]
21,15.8 nM,CCCCc1nn(C(CC(=O)OCC)C(=O)c2ccccc2)c(=O)n1Cc1ccc(-c2ccccc2-c2nn[nH]n2)cc1 (stereo not shown) [Compound 101]
22,20 nM,CCCCc1nn(C(C)(C)C(=O)c2ccccc2)c(=O)n1Cc1ccc(-c2ccccc2-c2nn[nH]n2)cc1 [Compound 102]

row,Kb,Structure (SMILES)
1,10 nM,CCCCc1nn(CCCCC(=O)O)c(=O)n1Cc1ccc(-c2ccccc2-c2nn[nH]n2)cc1 [Compound 103]
2,20 nM,CCCCn1nc(C(C#N)CCC)n(Cc2ccc(-c3ccccc3-c3nn[nH]n3)cc2)c1=O (stereo not shown) [Compound 106]
3,5.01 nM,CCCCc1nn(CC(OCC(=O)OCC)c2ccccc2)c(=O)n1Cc1ccc(-c2ccccc2-c2nn[nH]n2)cc1 (stereo not shown) [Compound 107]
4,5010 nM,CCCCc1nc2cnncc2n1Cc1ccc(-c2ccccc2C(=O)O)cc1 [Compound 108]
5,50.1 nM,CCCCc1nc2c(O)nnc(O)c2n1Cc1ccc(-c2ccccc2C(=O)O)cc1 [Compound 109]
6,398 nM,CCCCc1nc2c(Cl)nnc(Cl)c2n1Cc1ccc(-c2ccccc2-c2nnn[nH]2)cc1 [Compound 110]
7,6310 nM,CCCCc1nc2c(OCC)nnc(OCC)c2n1Cc1ccc(-c2ccccc2-c2nnn[nH]2)cc1 [Compound 112]
8,3.98 nM,CCCCc1nc2c(CCC)nnc(O)c2n1Cc1ccc(-c2ccccc2-c2nnn[nH]2)cc1 [Compound 113]
9,398 nM,CCCCc1nc2c(O)nnc(CCC)c2n1Cc1ccc(-c2ccccc2-c2nn[nH]n2)cc1 [Compound 114]
10,316 nM,CCCCc1nc2c(O)nncc2n1Cc1ccc(-c2ccccc2-c2nnn[nH]2)cc1 [Compound 116]
11,11000 nM,CCCCc1nc(Cc2ccc(-c3ccccc3C(=O)O)cc2)nn1CCCC [Compound 127]
12,5010 nM,CCCCc1nc(Cc2ccc(-c3ccccc3-c3nnn[nH]3)cc2)nn1CCCC [Compound 129]
13,2 nM,CCCCc1cn(CCc2ccccc2)c(=O)n1Cc1ccc(-c2ccccc2-c2nnn[nH]2)cc1 [Compound 133]
14,0.501 nM,CCCCc1cn(CCc2cccs2)c(=O)n1Cc1ccc(-c2ccccc2-c2nnn[nH]2)cc1 [Compound 134]
15,3.16 nM,CCCCc1cn(-c2ccccc2Cl)c(=O)n1Cc1ccc(-c2ccccc2-c2nnn[nH]2)cc1 [Compound 135]
16,5.01 nM,CCCCc1c(C)n(CCCC)c(=O)n1Cc1ccc(-c2ccccc2-c2nnn[nH]2)cc1 [Compound 137]
17,6.31 nM,CCCc1cn(CCC)c(=O)n1Cc1ccc(-c2ccccc2-c2nnn[nH]2)cc1 [Compound 138]
18,2510 nM,CCCCc1nc(Cl)c(Cl)n1Cc1ccc(-n2cccc2C(=O)O)cc1 [Compound 147]
19,1580 nM,CCCCc1nc(Cl)c(CO)n1Cc1ccc(-n2cccc2C(=O)O)cc1 [Compound 148]
20,0.851 nM,CCCCc1cn(-c2c(C)cccc2C)c(=O)n1Cc1ccc(-c2ccccc2-c2nnn[nH]2)cc1 [Compound 275]
21,288 nM,CCCCc1cn(-c2c(C(C)C)cccc2C(C)C)c(=O)n1Cc1ccc(-c2ccccc2-c2nnn[nH]2)cc1 [Compound 277]

# From patent US20040067915A1, “Method to treat cardiofibrosis with a combination of an angiotensin II antagonist and spironolactone” (G.D. Searle & Co., priority 1995, published 2004)
